What is called Kd is the equilibrium constant for the complex coming apart. A lower Kd goes with tighter binding.

Structures are written as SMILES.

The text below walks through data of publication PMC12334614, “Chidamide and cytarabine synergistically treat acute myeloid leukemia: inhibiting ribosome biogenesis via the MYC-RRP9 pathway” (Cell Death & Disease, 2025).

In assay [1] the target is T1, MYC (Homo sapiens, UniProt P01106, A416G/K413A/P406A/V409A).
T1 construct: recombinant MYC protein carrying the predicted substitutions (MedChemExpress HY-P7S1056)
As to the kind of experiment: SPR (Biacore X100, steady-state affinity). It is filed as binding. Background: In SPR one partner is held on a chip, and binding of the other changes the refractive index at the surface.

In assay [2] the target is T2, c-MYC (Homo sapiens, UniProt P01106).
T2 construct: recombinant c-MYC protein (RayBiotech) immobilized on CM5 chip
As to the kind of experiment: SPR (Biacore X100, steady-state affinity). It is filed as binding.

T1 sequence (P01106 16-454 P406A/V409A/K413A/A416G): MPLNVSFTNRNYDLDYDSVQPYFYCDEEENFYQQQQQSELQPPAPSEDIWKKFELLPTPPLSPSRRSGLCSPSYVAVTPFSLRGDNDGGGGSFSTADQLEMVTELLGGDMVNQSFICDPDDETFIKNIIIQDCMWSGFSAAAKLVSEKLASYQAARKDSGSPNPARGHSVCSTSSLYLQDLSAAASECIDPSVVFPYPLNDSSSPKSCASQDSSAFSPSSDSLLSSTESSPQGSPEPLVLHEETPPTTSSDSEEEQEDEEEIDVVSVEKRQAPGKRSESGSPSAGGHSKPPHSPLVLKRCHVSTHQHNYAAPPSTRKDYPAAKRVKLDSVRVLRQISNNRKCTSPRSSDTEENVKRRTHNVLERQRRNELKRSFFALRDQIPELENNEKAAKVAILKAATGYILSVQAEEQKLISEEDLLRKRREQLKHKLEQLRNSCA
T2 sequence (P01106 16-454): as the sequence (P01106 16-454 P406A/V409A/K413A/A416G) above, with A391P, A394V, A398K, G401A counted along it

As to `Nc1cc(F)ccc1NC(=O)c1ccc(CNC(=O)/C=C/c2cccnc2)cc1` [chidamide], the Kd was 3120 nM in assay [1] and 795 nM in assay [2].
